Measured values reported in US7495027B2, “3-aryl-4-hydroxyfuranone compounds and the human and animal health use thereof” (Wyeth, priority 2003, dated 2009).
Values after ≈ are worked out from the molar mass of the structure shown. Where two headings read alike, the source gives them in different places.

How the values were obtained:
[1] = system: Trichostrongylus columbriformis; test: In vivo efficacy against T. colubriformis in infected gerbils; conditions: gerbils infected with T. colubriformis, single oral dose of 50 mg/kg by gavage, worm counts four days post-treatment, % mortality as compared to negative control
Summary of the method: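 Gerbils infected with ~800 L3/mL larvae were treated one week later by gavage with a single 50 mg/kg oral dose in PEG 400:DMSO (1:2 v/v), 3 animals per group. Necropsy four days post-treatment, with worms counted under stereoscopes.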

[2] = Toxicity in treated gerbils (deaths or significant weight loss); format: in vivo; design: key: +: Toxicity is indicated for those groups having one or more animals expired; conditions: single oral dose of 50 mg/kg
Method: In this evaluation, gerbils are infected with Trichostrongylus columbriformis infective larvae at a concentration of approximately 800 L3/mL. Larvae for gerbil infections are cultured from feces from sheep previously infected with T. colubriformis. One week post infection, test compounds are administered by gavage as a single oral dose of 50 mg/kg of body weight. For each group of 3 gerbils, 10 mg of test compound are dissolved in 2 mL of PEG 400:DMSO (1:2 v/v) and each animal is administered the test solution at a rate of 0.1 mL/10 g of body weight. […] All animals are observed daily for morbidity and mortality. Four days post-treatment, all animals are weighed and necropsied. Worm counts are conducted with the use of stereoscopes and counters.

C. elegans = test: Efficacy against nematodes (C. elegans motility rating); design: key: 0: no effect; 7: reduced movement in 24 h; 8: dead in 24 h; 9: dead in 4 h; conditions: observations at 4 h and 24 h postimmersion
Summary of the method: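 Mixed-stage C. elegans (~50 per well, L1 to adult) in M9 buffer exposed to test compound at 100 ppm, 150 ppm or 200 μM final. Motility of larvae and adults scored under dissecting microscope at 4 h and 24 h.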

[3] = target: E. coli UDP-N-acetylglucosamine enolpyruvoyl transferase, MurA (Escherichia coli, UniProt P0A749); test: biochemical; conditions: (E) E. coli enzyme
Chain of E. coli UDP-N-acetylglucosamine enolpyruvoyl transferase, MurA (P0A749 whole entry): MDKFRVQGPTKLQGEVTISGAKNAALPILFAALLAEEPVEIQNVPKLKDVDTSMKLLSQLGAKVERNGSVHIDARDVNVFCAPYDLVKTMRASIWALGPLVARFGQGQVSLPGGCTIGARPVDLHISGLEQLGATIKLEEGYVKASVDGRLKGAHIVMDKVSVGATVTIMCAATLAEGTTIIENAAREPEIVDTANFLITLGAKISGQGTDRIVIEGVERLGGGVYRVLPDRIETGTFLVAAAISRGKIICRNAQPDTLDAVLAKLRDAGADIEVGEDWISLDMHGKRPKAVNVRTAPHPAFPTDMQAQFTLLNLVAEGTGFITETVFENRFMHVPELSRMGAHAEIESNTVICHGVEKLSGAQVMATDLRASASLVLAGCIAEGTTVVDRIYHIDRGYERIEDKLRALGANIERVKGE
Summary of the method: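 Compound in DMSO/water pre-incubated 10 min at 37° C with enzyme in 50 mM Tris/HCl pH 8.0, 5 mM DTT, 20% glycerol. After Tris/BME and assay buffer were added, OD340 was read at start. Reaction ran 1 hr at 37° C, then stop solution was added with 30 min colour development.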

[4] = target: E. coli Enopyruvyl-UPD-N-acetylglucosamine reductase, Mur B (Escherichia coli, UniProt P08373); test: biochemical; conditions: (E) E. coli enzyme; read-out: MurB IC50 (converted)
Chain of E. coli Enopyruvyl-UPD-N-acetylglucosamine reductase, Mur B (P08373 whole entry): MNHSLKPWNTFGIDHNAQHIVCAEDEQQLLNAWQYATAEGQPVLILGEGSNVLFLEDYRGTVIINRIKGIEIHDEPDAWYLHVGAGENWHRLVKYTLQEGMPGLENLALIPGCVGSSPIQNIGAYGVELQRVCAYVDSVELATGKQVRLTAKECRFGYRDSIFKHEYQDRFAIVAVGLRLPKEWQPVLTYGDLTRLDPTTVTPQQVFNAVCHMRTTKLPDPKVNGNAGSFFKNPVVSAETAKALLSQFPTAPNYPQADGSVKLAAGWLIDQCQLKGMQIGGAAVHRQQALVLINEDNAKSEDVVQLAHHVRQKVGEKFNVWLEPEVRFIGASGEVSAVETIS

[5] = target: E. coli Uridine-diphosphate-N-acetvimuramoyl: L-alanine lipase, MurC (Escherichia coli, UniProt P17952); test: Inhibitory activity against MurC (E. coli); format: biochemical; conditions: (E) E. coli enzyme; read-out: MurC IC50 (converted)
Chain of E. coli Uridine-diphosphate-N-acetvimuramoyl: L-alanine lipase, MurC (P17952 whole entry): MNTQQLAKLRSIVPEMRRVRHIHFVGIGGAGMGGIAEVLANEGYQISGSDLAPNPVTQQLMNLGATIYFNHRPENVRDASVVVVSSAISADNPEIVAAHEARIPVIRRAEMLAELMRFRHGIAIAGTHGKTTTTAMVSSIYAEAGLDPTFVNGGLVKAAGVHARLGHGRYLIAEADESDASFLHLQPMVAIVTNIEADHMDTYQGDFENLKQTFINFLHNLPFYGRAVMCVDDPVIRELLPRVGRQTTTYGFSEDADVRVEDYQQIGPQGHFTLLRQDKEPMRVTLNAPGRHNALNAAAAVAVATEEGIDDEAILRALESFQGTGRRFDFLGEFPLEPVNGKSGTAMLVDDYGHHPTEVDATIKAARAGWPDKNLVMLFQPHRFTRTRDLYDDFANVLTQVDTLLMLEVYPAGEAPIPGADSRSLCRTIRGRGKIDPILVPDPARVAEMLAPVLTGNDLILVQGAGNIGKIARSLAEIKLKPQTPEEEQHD

[6] = target: T1, S. aureus Uridine-diphosphate-N-acetylmuramoyl-L-alanine: D-glutamate liease, MurD (Staphylococcus aureus, UniProt Q2FZ92); test: biochemical; conditions: (S) S. aureus enzyme
T1 sequence (Q2FZ92 1-449): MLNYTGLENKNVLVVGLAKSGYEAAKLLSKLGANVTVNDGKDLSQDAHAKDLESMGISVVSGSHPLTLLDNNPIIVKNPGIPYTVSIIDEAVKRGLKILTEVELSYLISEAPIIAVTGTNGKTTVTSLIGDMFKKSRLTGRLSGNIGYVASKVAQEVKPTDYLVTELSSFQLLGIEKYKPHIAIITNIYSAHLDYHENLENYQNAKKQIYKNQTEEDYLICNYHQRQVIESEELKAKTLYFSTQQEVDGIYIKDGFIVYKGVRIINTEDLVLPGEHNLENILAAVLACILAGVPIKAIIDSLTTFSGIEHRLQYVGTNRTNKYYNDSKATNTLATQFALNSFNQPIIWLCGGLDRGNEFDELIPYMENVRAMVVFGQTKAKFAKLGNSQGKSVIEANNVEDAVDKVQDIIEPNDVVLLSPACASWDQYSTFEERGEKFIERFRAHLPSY
Summary of the method: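 MurD, which catalyses the fourth step of cell wall biosynthesis, was tested for inhibition by compounds. Compounds were made up as 10 mg/mL DMSO stocks and diluted to 100 μg/mL in 50 mM Tris/HCl, pH 8.5.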

[7] = target: E. coli Uridine-diphosphate-N-acetylmuramoyl-L-alanine: D-glutamate liease, MurD (Escherichia coli, UniProt P14900); test: biochemical; conditions: (E) E. coli enzyme
Chain of E. coli Uridine-diphosphate-N-acetylmuramoyl-L-alanine: D-glutamate liease, MurD (P14900 whole entry): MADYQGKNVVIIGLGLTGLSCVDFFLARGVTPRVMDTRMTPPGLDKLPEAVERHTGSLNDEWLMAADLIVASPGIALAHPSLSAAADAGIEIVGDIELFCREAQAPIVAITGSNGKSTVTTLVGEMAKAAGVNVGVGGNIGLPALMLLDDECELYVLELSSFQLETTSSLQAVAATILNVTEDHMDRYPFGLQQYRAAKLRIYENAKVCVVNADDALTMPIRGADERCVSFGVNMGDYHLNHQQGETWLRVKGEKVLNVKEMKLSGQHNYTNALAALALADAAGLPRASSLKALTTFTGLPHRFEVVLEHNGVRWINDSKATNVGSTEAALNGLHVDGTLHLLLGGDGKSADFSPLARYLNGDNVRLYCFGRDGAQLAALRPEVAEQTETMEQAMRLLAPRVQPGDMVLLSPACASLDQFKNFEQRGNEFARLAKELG
Summary of the method: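 Final buffer 83 mM Tris/HCl pH 8.0, 50 mM MgCl2, 2 mM ATP. Compounds from 10 mg/mL DMSO stocks diluted to 100 μg/mL in 50 mM Tris/HCl pH 8.5 (working solution, not final assay level).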

staphylococci = test: Minimum inhibitory concentration, microdilution broth method, staphylococci; format: cell-based; conditions: Mueller-Hinton broth, 18-22 hours at 35° C.; for MIC: Staphylococcus aureus
Summary of the method: (§1)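 Strep: Mueller-Hinton + 5% horse blood (LHB). Enterococci, staph: Mueller-Hinton broth alone. Microdilution format per NCCLS M7-A5 2000; isolates include resistant clinical strains.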

enterococci = test: Minimum inhibitory concentration, microdilution broth method, enterococci; format: cell-based; conditions: Mueller-Hinton broth, 18-22 hours at 35° C.; for MIC: Enterococcus faecalis
Summary of the method: as §1

Streptococci = test: Minimum inhibitory concentration, microdilution broth method, streptococci; format: cell-based; conditions: Mueller-Hinton broth with 5% horse blood, 18-22 hours at 35° C.; for MIC: S. pneumo GC 1894
Summary of the method: as §1

[8] = S. aureus GC 1131, read-out: MIC S. aureus GC 1131
[9] = S. aureus GC 4543, read-out: MIC S. aureus GC 4543
[10] = E. faecalis GC 2242, read-out: MIC E. faecalis GC 2242
[11] = E. faecalis GC 4555, read-out: MIC E. faecalis GC 4555

Row | Structure (SMILES) | Mortality [1] [%] | Toxicity ([2]; groups of 3) | IC50 [3] [µM] | IC50 [4] [µM] | IC50 [5] [µM] | IC50 [7] [µM] | MIC (staphylococci; [8]) [µg/mL] | MIC (staphylococci; [9]) [µg/mL] | MIC (enterococci; [10]) [µg/mL] | MIC (enterococci; [11]) [µg/mL] | MIC (Streptococci) [µg/mL] | melting point | further results
1 | COc1cc(/C=C2\OC(=O)C(c3cccc(Cl)c3)=C2O)ccc1-c1ccccc1C(F)(F)F | 29.50 | + |  |  |  |  |  |  |  |  |  |  | 
2 | O=C1OC(=Cc2ccc(OC(F)(F)F)cc2)C(O)=C1c1ccc(OC(F)(F)F)cc1 (mixture of isomers) [R=H; R1=4-OCF3—C6H4**; R2=4-OCF3—C6H4] | 100.0 | + |  |  |  |  |  |  |  |  |  |  | Rating (C. elegans; dose 100 ppm): 9
3 | O=C1O/C(=C\c2ccccc2C(F)(F)F)C(O)=C1c1ccc(-c2ccccc2)c(F)c1 [Example 107] |  |  | 32.8 | 9.38 | 14.1 | > 58.6 | 4 (≈ 9.38 µM) | 2 (≈ 4.69 µM) | 2 (≈ 4.69 µM) | 8 (≈ 18.8 µM) | 0.25 (≈ 0.586 µM) | 224 to 228 °C | IC50 [6]: 39.9 µM
4 | O=C1O/C(=C\c2cccc(C(F)(F)F)c2)C(O)=C1c1cccc(-c2ccccc2)c1 [Example 108] |  |  | 46.5 | 24.5 | 14.7 | > 61.2 | 2 (≈ 4.9 µM) | 2 (≈ 4.9 µM) | 2 (≈ 4.9 µM) | 8 (≈ 19.6 µM) | 1 (≈ 2.45 µM) | 210 to 212 °C | IC50 [6]: 36.7 µM
5 | O=C1O/C(=C\c2ccc(-c3ccc(Cl)cc3)cc2)C(O)=C1c1ccc(Cl)cc1 [R=H; R1=4-Cl—C6H4; R2=4-(4′-Cl-biphenyl)] | 61.33 | + |  |  |  |  |  |  |  |  |  |  | Rating (C. elegans; dose 150 ppm): 9
6 | O=C1O/C(=C\c2ccc(-c3ccccc3)cc2)C(O)=C1c1cc(Cl)cc(Cl)c1 [R=H; R1=3,5-diCl—C6H3; R2=4-biphenyl] | 52.60 | + |  |  |  |  |  |  |  |  |  |  | Rating (C. elegans; dose 150 ppm): 9
7 | O=C1OC(=Cc2ccc(Cl)cc2)C(O)=C1c1ccc(OC(F)(F)F)cc1 (mixture of isomers) [R=H; R1=4-OCF3—C6H4**; R2=4-Cl—C6H4] | 100.0 | + |  |  |  |  |  |  |  |  |  |  | Rating (C. elegans; dose 100 ppm): 9
8 | O=C1O/C(=C\c2ccc(-c3ccccc3)cc2)C(O)=C1c1ccc(Cl)c(Cl)c1 [Example 66] |  |  | 7.33 | 4.89 | 7.33 | 51.3 | 2 (≈ 4.89 µM) | 1 (≈ 2.44 µM) | 0.5 (≈ 1.22 µM) | 2 (≈ 4.89 µM) | < 0.125 | 265 to 269 °C | IC50 [6]: 12.2 µM
9 | N#Cc1ccc(-c2ccc(/C=C3\OC(=O)C(c4ccc(Cl)cc4)=C3O)cc2)cc1 [R=H; R1=4-Cl—C6H4; R2=4-(4′-CN-biphenyl)] |  |  |  |  |  |  |  |  |  |  |  |  | Rating (C. elegans; dose 150 ppm): 9; Mortality ([1]; 50 mg/kg): 48.90%; Toxicity ([2]; groups of 3, 50 mg/kg): +
10 | O=C1O/C(=C\c2ccc(-c3ccccc3)cc2)C(O)=C1c1cc(C(F)(F)F)cc(C(F)(F)F)c1 [R=H; R1=3,5-diCF3—C6H3; R2=4-biphenyl] | 60.80 | + |  |  |  |  |  |  |  |  |  |  | Rating (C. elegans; dose 150 ppm): 9
11 | N#Cc1ccc(C2=C(O)C(=Cc3ccc(Cl)cc3)OC2=O)cc1 [R=H; R1=4-CN—C6H4; R2=4-Cl—C6H4] | 90.20 | + |  |  |  |  |  |  |  |  |  |  | 
12 | N#Cc1ccc(C2=C(O)C(=Cc3ccc(-c4ccc(Cl)cc4)cc3)OC2=O)cc1 [R=H; R1=4-CN—C6H4; R2=4-(4′-Cl-biphenyl)] | 64.33 | + |  |  |  |  |  |  |  |  |  |  | 
13 | N#Cc1ccc(C2=C(O)/C(=C/c3ccc(-c4ccc(C#N)cc4)cc3)OC2=O)cc1 [R=H; R1=4-CN—C6H4; R2=4-(4′CN-biphenyl)] | 88.60 | + |  |  |  |  |  |  |  |  |  |  | 
14 | O=C1O/C(=C\c2ccc(-c3ccccc3)cc2)C(O)=C1c1cc(Cl)cc(Cl)c1 [Example 68] |  |  | 7.33 | 7.33 | 22 | 26.9 |  |  |  |  |  | 232 to 235 °C | IC50 [6]: 26.9 µM; MIC S. aureus GC 1131 (staphylococci; S. aureus GC 1131): 2 µg/mL (≈ 4.89 µM); MIC S. aureus GC 4543 (staphylococci; S. aureus GC 4543): 2 µg/mL (≈ 4.89 µM); MIC E. faecalis GC 2242 (enterococci; E. faecalis GC 2242): 1 µg/mL (≈ 2.44 µM); MIC E. faecalis GC 4555 (enterococci; E. faecalis GC 4555): 2 µg/mL (≈ 4.89 µM); MIC S. pneumo GC 1894 (Streptococci): <0.125 µg/mL
15 | Cc1ccc(/C=C2\OC(=O)C(c3ccc4ccccc4c3)=C2O)s1 [Example 41] |  |  | > 74.8 | > 74.8 | 38.9 | > 74.8 | 32 (≈ 95.7 µM) | 64 (≈ 191 µM) | 32 (≈ 95.7 µM) | 64 (≈ 191 µM) | 32 (≈ 95.7 µM) | 144 to 145 °C (dec.) | 
16 | N#Cc1ccc(/C=C2\OC(=O)C(c3ccc(C#N)cc3)=C2O)cc1 [R=H; R1=4-CN—C6H4; R2=4-CN—C6H4] | 62.43 | + |  |  |  |  |  |  |  |  |  |  | 
17 | O=C1O/C(=C\c2ccc(Cl)cc2)C(O)=C1c1cccc2ccccc12 [Example 46] |  |  | > 71.7 | > 71.7 | 45.9 | > 71.7 | 64 (≈ 183 µM) | 32 (≈ 91.7 µM) | 64 (≈ 183 µM) | 32 (≈ 91.7 µM) | 16 (≈ 45.9 µM) | 235 to 237 °C | 
18 | O=C1O/C(=C\c2ccc(-c3ccccc3)cc2)C(O)=C1c1ccc(Cl)cc1 [R=H; R1=4-Cl—C6H4; R2=4-biphenyl] | 33.10 | + |  |  |  |  |  |  |  |  |  |  | 
19 | N#Cc1ccc(/C=C2\OC(=O)C(c3ccc(Cl)cc3)=C2O)cc1 [R=H; R1=4-Cl—C6H4; R2=4-CN—06H4] | 84.54 | + |  |  |  |  |  |  |  |  |  |  | 
20 | COc1ccc(C2=C(O)/C(=C/c3ccc4ccccc4c3)OC2=O)cc1 [Example 7] |  |  | > 72.6 | 61 | 37.8 | > 72.6 | 32 (≈ 92.9 µM) | 64 (≈ 186 µM) | 32 (≈ 92.9 µM) | 64 (≈ 186 µM) | 2 (≈ 5.81 µM) | 257 to 258.5 °C | 
21 | O=C1O/C(=C\c2ccc(-c3ccccc3)cc2)C(O)=C1c1ccc(Cl)cc1Cl [Example 65] |  |  | > 61.1 | 24.4 | 7.33 | 58.6 | 8 (≈ 19.5 µM) | 8 (≈ 19.5 µM) | 4 (≈ 9.77 µM) | 16 (≈ 39.1 µM) | < 0.125 | 252 to 256 °C | IC50 [6]: 36.7 µM
